Laboratory results from PubChem BioAssay AID330 (DTP/NCI, 2004).
Where “and” joins values, the source holds several entries; their conditions need not be identical. Identical values can stand only once. Toxic doses and inconclusive results are not listed. How the source made its calls: active means survival T/C of 150% or more; inactive means T/C below 125% in these data.

Tested on: P388 leukemia ip, CD2F1 mice, survival T/C
Test: NCI In Vivo Anticancer Drug Screen. Data for tumor model P388 Leukemia (intraperitoneal) in CD2F1 (CDF1) mice
Conditions: endpoint: median survival time, higher = longer survival
Method in brief: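 Mice carrying the transplanted tumor received test compound or vehicle. Survival was recorded in each group, and the value is the treated-group measurement divided by that of the vehicle-treated control group.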

[1] = dose: 15.0 mg/kg/injection, schedule: Q01DX005 (ip), vehicle: saline with Tween-80
[2] = dose: 60.0 mg/kg/injection, schedule: Q01DX005 (ip), vehicle: saline with Tween-80
[3] = dose: 50.0 mg/kg/injection, schedule: Q01DX005 (ip), vehicle: Klucel (hydroxypropylcellulose) (HPC)
[4] = dose: 100.0 mg/kg/injection, schedule: Q01DX005 (ip), vehicle: Klucel (hydroxypropylcellulose) (HPC)
[5] = dose: 200.0 mg/kg/injection, schedule: Q01DX005 (ip), vehicle: Klucel (hydroxypropylcellulose) (HPC)
[6] = dose: 50.0 mg/kg/injection, schedule: Q01DX009 (ip), vehicle: saline with Tween-80
[7] = dose: 100.0 mg/kg/injection, schedule: Q01DX009 (ip), vehicle: saline with Tween-80
[8] = dose: 200.0 mg/kg/injection, schedule: Q01DX009 (ip), vehicle: saline with Tween-80
[9] = dose: 25.0 mg/kg/injection, schedule: Q01DX009 (ip), vehicle: saline with Tween-80

Measured: T/C

Cc1cc2[nH]c3c(C#N)c(OC(=O)N(C)C)c(C)c(=O)n3c2cc1C
inactive: [1] 100 % of control | dose: 30.0 mg/kg/injection, schedule: Q01DX005 (ip), vehicle: saline with Tween-80 108 % of control | [2] 100 % of control and 93 % of control

COc1cc(C2c3cc4c(c(OC)c3C(O)C3CC(=O)OC23)OCO4)cc(OC)c1OC (stereo not drawn)
inactive: [2] 115 % of control | dose: 120.0 mg/kg/injection, schedule: Q01DX005 (ip), vehicle: saline with Tween-80 116 % of control

CCSC(SCC)C(NC(C)=O)C(OC(C)=O)C(OC(C)=O)C(COC(C)=O)OC(C)=O (stereo not drawn)
inactive: dose: 12.5 mg/kg/injection, schedule: Q01DX009 (ip), vehicle: other 107 % of control | dose: 25.0 mg/kg/injection, schedule: Q01DX009 (ip), vehicle: other 107 % of control | dose: 50.0 mg/kg/injection, schedule: Q01DX009 (ip), vehicle: other 95 % of control | dose: 100.0 mg/kg/injection, schedule: Q01DX009 (ip), vehicle: other 107 % of control | dose: 200.0 mg/kg/injection, schedule: Q01DX009 (ip), vehicle: other 98 % of control

CC(=O)SCC(C)C(=O)N1CCCC1C(=O)NC(Cc1ccccc1)C(=O)O (stereo not drawn)
inactive: [3] 110 % of control | [4] 98 % of control | [5] 104 % of control

Cc1cc2c(cc1C)n1c(=O)n(C)c(=O)c(C#N)c1n2C
inactive: dose: 7.5 mg/kg/injection, schedule: Q01DX005 (ip), vehicle: saline with Tween-80 100 % of control | [1] 101 % of control

Cc1cc(OC(=O)Nc2cc([N+](=O)[O-])ccc2C)c(Br)cc1Cl
inactive: dose: 12.5 mg/kg/injection, schedule: Q01DX009 (ip), vehicle: saline 98 % of control | dose: 25.0 mg/kg/injection, schedule: Q01DX009 (ip), vehicle: saline 93 % of control | [6] 117 % of control | dose: 50.0 mg/kg/injection, schedule: Q01DX009 (ip), vehicle: saline 100 % of control

Cc1c2c(c(C)c3c1[nH]c1ccccc13)C(C#N)N(C(=O)c1ccccc1)C=C2 (stereo not drawn)
inactive: dose: 6.25 mg/kg/injection, schedule: Q04DX003 (ip), vehicle: distilled water + Tween-80 100 % of control | dose: 12.5 mg/kg/injection, schedule: Q04DX003 (ip), vehicle: distilled water + Tween-80 102 % of control | dose: 25.0 mg/kg/injection, schedule: Q04DX003 (ip), vehicle: distilled water + Tween-80 90 % of control | dose: 50.0 mg/kg/injection, schedule: Q04DX003 (ip), vehicle: distilled water + Tween-80 88 % of control | dose: 100.0 mg/kg/injection, schedule: Q04DX003 (ip), vehicle: distilled water + Tween-80 90 % of control | dose: 200.0 mg/kg/injection, schedule: Q04DX003 (ip), vehicle: distilled water + Tween-80 94 % of control

CC(C)(OC(=O)NC(CC(N)=O)C(=O)O)c1ccc(-c2ccccc2)cc1 (stereo not drawn)
inactive: [3] 98 % of control | [4] 104 % of control | [5] 90 % of control

CCCOC(=O)c1ccccc1C(=O)O
inactive: [6] 105 % of control | [7] 104 % of control | [8] 101 % of control

CC(C#N)(Cc1ccccc1)Nc1ccccc1 (stereo not drawn)
inactive: [6] 95 % of control | [7] 90 % of control | [8] 95 % of control

CC(C)C1=CC(=O)C2=C(CCC3C4=C(CCC23C)C(=O)OC4)C1=O (stereo not drawn)
inactive: dose: 6.25 mg/kg/injection, schedule: Q01DX009 (ip), vehicle: DMSO 105 % of control | dose: 12.5 mg/kg/injection, schedule: Q01DX009 (ip), vehicle: DMSO 113 % of control | dose: 25.0 mg/kg/injection, schedule: Q01DX009 (ip), vehicle: DMSO 98 % of control

C/C(=C\c1ccc([N+](=O)[O-])cc1)C(=O)N1CCCCC1
inactive: [3] 105 % of control | [4] 96 % of control | [5] 96 % of control

CC1CCN(SSc2nc3ccccc3s2)CC1
inactive: [6] 104 % of control and 116 % of control | [7] 107 % of control and 112 % of control | [8] 110 % of control and 118 % of control | dose: 400.0 mg/kg/injection, schedule: Q01DX009 (ip), vehicle: saline with Tween-80 114 % of control

Cc1ccc(NC(=O)Oc2cc(C)c(Cl)cc2C)c([N+](=O)[O-])c1
inactive: [6] 95 % of control | [7] 87 % of control | [8] 91 % of control

CCCCC(NC(=O)OCc1ccccc1)C(=O)NC(CC(C)C)C(=O)O (stereo not drawn)
inactive: [3] 100 % of control | [4] 100 % of control | [5] 92 % of control

CN(C)c1ccc(C=Nc2ccc3ccc4cccc5ccc2c3c45)cc1
inactive: dose: 50.0 mg/kg/injection, schedule: Q01DX009 (ip), vehicle: Klucel (hydroxypropylcellulose) (HPC) 101 % of control | dose: 100.0 mg/kg/injection, schedule: Q01DX009 (ip), vehicle: Klucel (hydroxypropylcellulose) (HPC) 102 % of control | dose: 200.0 mg/kg/injection, schedule: Q01DX009 (ip), vehicle: Klucel (hydroxypropylcellulose) (HPC) 102 % of control

CC1(c2ccccc2)NN(S(=O)(=O)c2ccccc2)C(c2ccccc2)(c2ccccc2)/C1=N/Nc1ccccc1 (stereo not drawn)
inactive: dose: 50.0 mg/kg/injection, schedule: Q01DX001 (ip), vehicle: saline with Tween-80 93 % of control | dose: 100.0 mg/kg/injection, schedule: Q01DX001 (ip), vehicle: saline with Tween-80 88 % of control | dose: 200.0 mg/kg/injection, schedule: Q01DX001 (ip), vehicle: saline with Tween-80 89 % of control

CCOP(=O)(O)SP(=O)(O)OCC.CCOP(=O)(O)SP(=O)(O)OCC.[Co]
inactive: dose: 50.0 mg/kg/injection, schedule: Q01DX001 (ip), vehicle: saline 105 % of control | dose: 100.0 mg/kg/injection, schedule: Q01DX001 (ip), vehicle: saline 104 % of control and 111 % of control

COc1cc(CC2C(CO)OC(=O)C2Cc2ccc3c(c2)OCO3)cc(OC)c1OC (stereo not drawn)
inactive: dose: 50.0 mg/kg/injection, schedule: Q04DX002 (ip), vehicle: acetone 98 % of control | dose: 100.0 mg/kg/injection, schedule: Q04DX002 (ip), vehicle: acetone 98 % of control | dose: 200.0 mg/kg/injection, schedule: Q04DX002 (ip), vehicle: acetone 98 % of control

CC(C)NC(=O)OCc1c(COC(=O)NC(C)C)c(-c2ccc(Cl)c(Cl)c2)n2c1SCC2
inactive: dose: 25.0 mg/kg/injection, schedule: Q01DX005 (ip), vehicle: saline with Tween-80 105 % of control | dose: 50.0 mg/kg/injection, schedule: Q01DX005 (ip), vehicle: saline with Tween-80 115 % of control | dose: 100.0 mg/kg/injection, schedule: Q01DX005 (ip), vehicle: saline with Tween-80 116 % of control and 121 % of control | dose: 200.0 mg/kg/injection, schedule: Q01DX005 (ip), vehicle: saline with Tween-80 117 % of control and 123 % of control | dose: 400.0 mg/kg/injection, schedule: Q01DX005 (ip), vehicle: saline with Tween-80 122 % of control

CN1COc2c(Cl)cc(Cl)cc2C1
inactive: [9] 95 % of control | [6] 90 % of control | [7] 86 % of control

COc1ccc(C2CC(=O)N(CN3CCN(c4ccc(Cl)cc4)CC3)C(=O)C2)cc1
inactive: dose: 6.25 mg/kg/injection, schedule: Q01DX009 (ip), vehicle: saline with Tween-80 94 % of control | dose: 12.5 mg/kg/injection, schedule: Q01DX009 (ip), vehicle: saline with Tween-80 94 % of control | [9] 91 % of control | [8] 92 % of control

C[N+]1(C2CCCCC2c2cccc(O)c2)CCCC1 (stereo not drawn)
inactive: dose: 0.39 mg/kg/injection, schedule: Q01DX009 (ip), vehicle: saline 98 % of control | dose: 0.79 mg/kg/injection, schedule: Q01DX009 (ip), vehicle: saline 104 % of control | dose: 1.56 mg/kg/injection, schedule: Q01DX009 (ip), vehicle: saline 98 % of control

CC(=O)/C(=C\c1ccccc1Cl)C(=O)CCN(C)C
inactive: dose: 40.0 mg/kg/injection, schedule: Q01DX005 (ip), vehicle: saline 115 % of control | dose: 60.0 mg/kg/injection, schedule: Q01DX005 (ip), vehicle: saline 107 % of control and 112 % of control | dose: 120.0 mg/kg/injection, schedule: Q01DX005 (ip), vehicle: saline 121 % of control | dose: 240.0 mg/kg/injection, schedule: Q01DX005 (ip), vehicle: saline 122 % of control

CC(=O)Nc1cc2cc(NC(=O)C(Cl)(Cl)Cl)ccc2oc1=O
inactive: dose: 60.0 mg/kg/injection, schedule: Q01DX005 (ip), vehicle: Klucel (hydroxypropylcellulose) (HPC) 98 % of control | dose: 120.0 mg/kg/injection, schedule: Q01DX005 (ip), vehicle: Klucel (hydroxypropylcellulose) (HPC) 100 % of control | dose: 240.0 mg/kg/injection, schedule: Q01DX005 (ip), vehicle: Klucel (hydroxypropylcellulose) (HPC) 100 % of control
